What was measured:
HeLa_Luc705 cells = assay: Splice switching activity assay, 24 hr SMC treatment, Examples 4B/4D; format: cell-based
Procedure: HeLa_Luc705 cells were seeded in 96-well plates at 10,000 cells per well in growth media with 2 μM Luc705-SSO or 1 μM Luc705-SSO. The various SMCs were diluted directly into prepared growth media. After 24 hr to allow adherence and SSO internalization, 10 μl of diluted SMC was added into each well at indicated concentrations. For a positive control, SSOs were complexed with Lipofectamine 2000 for 30 min at RT and cells treated with a final concentration of 200 nM. ON concentrations above 200 nM would require LF2000 to be used in excess of the cells' toxicity threshold. After 24 hr treatment, cells were lysed with 0.1% TritonX-100 (Sigma Aldrich, cat no. X100) in 1× PBS (Gibco, cat no. 10010023).
For the detection of luciferase activity, 30 μL of cell lysate was transferred to white-walled plates. The luciferase intensity in each well was immediately measured via luminometer following auto-injection of 25 μL Luciferin substrate as per the Promega Firefly Luciferase Assay System. The timing parameters of photon measurements were optimized for this procedure.
The various SMCs were diluted directly into prepared growth media. After 24 hr to allow adherence and SSO internalization, 10 μl of diluted SMC was added into each well at indicated concentrations. For a positive control, SSOs were complexed with Lipofectamine 2000 for 30 min at RT and cells treated with a final concentration of 200 nM. ON concentrations above 200 nM would require LF2000 to be used in excess of the cells' toxicity threshold. After 24 hr treatment, cells were lysed with 0.1% TritonX-100 (Sigma Aldrich, cat no. X100) in 1× PBS (Gibco, cat no. 10010023).

Huh7 mCherry-Gal9 cells = assay: mCherry-GAL9 recruitment assay; format: cell-based
Description: (§1) All compounds were subjected to a mCherry-GAL9 recruitment assay. Under normal conditions, mCherry-GAL9 is homogenously dispersed in the cytosol. When an endosomal leakage event is detected, mCherry-GAL9 translocates to the damaged endosome (Du Rietz et al. (2020) Nat. Commun. 11:1809) The resulting localization pattern of discrete puncta can be visualized and quantitated.
(§2) HeLa and Huh7 cell lines stably expressing mCherry-GAL9 were generated as described by (bioRxiv) (Munson, M. et al. (2021) Communications Biology, 4(211): 1-14) and seeded into 384-well CellCarrier Ultra plates (PerkinElmer: 6007558) at 3000 or 3500 cells/well respectively, 16 h before experimental usage.
(§3) Dose-response curves of select compounds were generated using an Echo 655T acoustic dispenser (Labcyte) to dispense the indicated compounds into source plates (Greiner: 781280) containing growth media. At experimental start points, media containing appropriate compounds and doses was transferred to plates using a liquid handling robot (Agilent Bravo).
(§4) At assay endpoints, cells were washed 2× PBS at RT and fixed in 4% PFA (VWR: 9713.1000) for 15 mins/RT. Cells were washed a further 3× PBS before the addition of PBS+1 μg/ml Hoechst 33342 (ThermoFisher Scientific: H21492) for a minimum of 1 h before imaging.
(§5) Plates were imaged using a spinning-disk confocal microscope (Yokogawa: CV7000) with a 20× objective (NA 0.75). Images were processed utilizing Columbus image-analysis software (PerkinElmer: v2.9.0) to identify and quantify cells and mCherry-GAL9 structures. The resulting data were processed and normalized in Spotfire (Tibco: v10.3) and plotted in Prism (Graphpad: v8.0.1). Image panels were assembled using the FigureJ plugin for FIJI. (Mutterer and Zinck (2013) J. Microsc. 252(1):89-91).
(§6) Cells were subjected to a 10-point concentration dilution (0-15 μM) for 2 hours and then fixed and imaged (FIG. 3 and FIG. 4). Images were analyzed and curves were generated from both mCherry-GAL9 puncta quantitation and cell survival as determined by nuclear morphology (FIG. 5). The GAL9 recruitment response support the functional splice-switching data with SSOs, confirming the mCherry-GAL9 assay as a powerful tool for screening endosomolytic compounds and supporting the hypothesis that AZ2467 (Compound 6) and AZ4800 (Compound 2) promote SSO activity by inducing endosomal rupture. The GAL9 assay was again conducted, this time in live cells for 4 hours with select compounds for screening. Compounds were screened at 5 μM (FIG. 6-8) or 0.3125-10 μM (FIG. 35-38). FIG. 39 and FIG. 47 provide results for select compounds at various doses 0.3125-10 μM.

HeLa mCherry-Gal9 cells = assay: mCherry-GAL9 recruitment assay; format: cell-based
Description: as §1, §2, §3, §4, §5, §6

Floxed mice = assay: Co-delivery of Cre recombinase, in vivo editing tdTomato reporter, ICV
Procedure: Cre recombinase ([…] […] […] […] […] […] […] (SEQ ID NO: 10)) was co-administered with Compound 4 to assess improvement in editing efficiency in an in vivo reporter system, in which edited mice express tdTomato. Floxed mice were administered via intracerebroventricular injection (ICV) with 60 pmol Cre recombinase and varying concentrations (2.5, 5.0, 7.5, 10.0, 12.5, and 15 μM) of Compound 4 as calculated in 40 μL CSF volume. Brain segments were analyzed by immunofluorescent staining 7 days post-treatment.

HEK cells = assay: Co-delivery of ABE8e base editor, GFP reporter; format: cell-based; conditions: 50 nM ABE8e, Compound 4 concentrations above 2.5 μM, FIG. 46B
Procedure: The ABE8e base editor comprising SpCas9 D10A nickase and a modified TadA adenosine deaminase (Richter et al., Nature Biotechnol. 38:883-891 (2020)) was co-administered with Compound 4 to assess improvement in editing efficiency in an in vitro reporter system in which edited cells express GFP. […] The bar shading and lines showing total cell counts, viable cells, and edited cells are the same as in FIG. 43A.
HEK cells were co-administered with a fixed concentration (50 nM) of ABE8e and varying concentrations of AZ3327 (Compound 4). The results in FIG. 46B show greater than 90% editing efficiency at Compound 4 concentrations of above 2.5 μM.
HEK and N2a cells were co-administered with a fixed concentration (2.5 μM) of Compound 4 and varying concentrations of ABE8e.

COc1nn(C2CCNCC2)cc1Nc1ncc(Cl)c(-n2ccc3c(C#N)cccc32)n1 [Compound 2]
increase in SSO activity (HeLa_Luc705 cells; 2 μM Luc 705 SSO, FIG. 26): induced an increase in SSO activity
relocalisation of Gal9 from cytosolic to punctate (Huh7 mCherry-Gal9 cells; 10-point dose titration, 2 hours, FIG. 4): dose-dependent manner
Gal9 recruitment signal, puncta per relative nuclear signal (Huh7 mCherry-Gal9 cells; 60 min, Huh7): highest overall induced signal
endosomal rupture, decrease of 488-SSO puncta (Huh7 mCherry-Gal9 cells; FIG. 16B): time and concentration-dependent manner
quantitation of GAL9 (mCherry-GAL9 puncta) (Huh7 mCherry-Gal9 cells; FIG. 17B): time and concentration-dependent responses
window in concentration between induction of endosomal rupture and cytotoxicity (Huh7 mCherry-Gal9 cells; Huh7, FIG. 5): narrow window
quantitation of Gal9 recruitment over time (Huh7 mCherry-Gal9 cells; Huh7, FIG. 7): time-dependent endosomal rupture
A488-positive structures (A488-SSO) after treatment (Huh7 mCherry-Gal9 cells; preloaded 1 μM A488-SSO, FIG. 15B): gradually disappeared over 2 hours
relocalisation of Gal9 from cytosolic to punctate (HeLa mCherry-Gal9 cells; 10-point dose titration, 2 hours, FIG. 3): dose-dependent manner
endosomal rupture, decrease of 488-SSO puncta (HeLa mCherry-Gal9 cells; FIG. 16A): time and concentration-dependent manner
quantitation of GAL9 (mCherry-GAL9 puncta) (HeLa mCherry-Gal9 cells; FIG. 17A): time and concentration-dependent responses
window in concentration between induction of endosomal rupture and cytotoxicity (HeLa mCherry-Gal9 cells; HeLa, FIG. 5): narrow window
quantitation of Gal9 recruitment over time (HeLa mCherry-Gal9 cells; HeLa, FIG. 8): time-dependent endosomal rupture
A488-positive structures (A488-SSO) after treatment (HeLa mCherry-Gal9 cells; preloaded 1 μM A488-SSO, FIG. 15A): gradually disappeared over 2 hours

COc1nn(C2CCNCC2)cc1Nc1ncc(F)c(-n2ccc3c(C#N)cccc32)n1 [Compound 4]
in vivo editing in the brain (tdTomato staining) (Floxed mice; ICV, 60 pmol Cre, 2.5-15 μM compound, 7 days post-treatment): enhanced by Compound 4 in a dose-dependent manner
staining in the lumbar sections of the spinal cord (Floxed mice; ICV, 60 pmol Cre, FIG. 44B): obvious staining
location of editing (Floxed mice; dissection segments, FIG. 44C): primarily at the injection site
increase in SSO activity (HeLa_Luc705 cells; 2 μM Luc 705 SSO, FIG. 24): increase in SSO activity
increase in SSO activity (HeLa_Luc705 cells; 2 μM Luc 705 SSO, FIG. 26): induced an increase in SSO activity
increase in SSO activity (HeLa_Luc705 cells; 2 μM SSO, FIG. 23A): increase in SSO activity
activity of the oligo as compared to oligo only (HeLa_Luc705 cells; 2.5 μM compound, 1 μM SSO, FIG. 27): enhanced activity of the oligo as compared to oligo only
increase in SSO activity over 1 μM naked SSO (HeLa_Luc705 cells; higher concentrations of AZ3327, FIG. 23B): increase in SSO activity
editing efficiency (HEK cells): greater than 90%
GAL9 response, rank (Huh7 mCherry-Gal9 cells; 0.25 to 4 hours, 0.31 to 10 μM, FIG. 40): most potent
dose from which GAL9+ responses are seen (Huh7 mCherry-Gal9 cells; after 15 mins, FIG. 40): ≥ 1.25 µM
GAL9 response, rank among exemplified compounds (Huh7 mCherry-Gal9 cells; doses 1.25-5 μM, 1, 2, 16 hours, FIG. 33): most potent response
GAL9 response, rank among exemplified compounds (HeLa mCherry-Gal9 cells; doses 1.25-5 μM, 1, 2, 16 hours, FIG. 34): most potent response

— patent US20260137807A1, “COMPOSITIONS AND METHODS FOR DELIVERING A MACROMOLECULE TO A CELL” (AstraZeneca AB, priority 2022, published 2026)
